Test results taken from PubChem BioAssay AID1963982 (Molecular Pharmacology Branch, DTP, NCI, 2024).

System: 313798-341-R-J2-PDC spheroids, viability
Assay: Anticancer human tumor 313798-341-R-J2-PDC patient-derived cervical squamous cell carcinoma cell line growth inhibition [PI3K]
Settings: spheroids with HUVEC and MSC; for IC50: curve of first compound; for viability, T/C: stronger effect = lower value
Excerpt: Combinatorial screen of targeted agents with the PI3K inhibitors inavolisib, alpelisib, duvelisib, and copanlisib in multi-cell type tumor spheroids
A high-throughput screen of multi-cell type tumor spheroids was designed to identify active combinations of targeted small molecules and PI3K pathway inhibitors. Complex spheroids include a stromal component modeled by human endothelial cells (HUVEC) and fibroblasts modeled by human mesenchymal stem cells (MSCs). The concentration ranges selected for each drug and investigational agent were based upon clinically achievable concentrations if the clinical Cmax of the agent was known.
Compounds. The drugs and investigational agents: inavolisib (NSC800729), alpelisib (NSC765974), duvelisib (NSC772469), copanlisib (NSC816437), ipatasertib (NSC767898), afuresertib (NSC778305), talazoparib (NSC767125), sapanisertib (NSC764658), selumetinib (NSC741078), tovorafenib (DAY101, NSC766906), vemurafenib (NSC761431), ravoxertinib (NSC781343), sotorasib (NSC818433), MRTX1133 (NSC 836407), abemaciclib (NSC 768073), palbociclib (NSC758247), venetoclax (NSC 766270), SY5609 (NSC837396), enzalutamide (NSC755605), and darolutamide (NSC825331), were obtained from the National Cancer Institute (NCI) Developmental Therapeutics Program Chemical Repository. The FDA-approved anticancer drug set is available from the NCI Developmental Therapeutics Program. […] The stock solutions were prepared in dimethyl sulfoxide (DMSO, Sigma-Aldrich, St. Louis, MO, cat. D2650) at 800-fold the tested concentration and stored at -70 degrees C prior to their use. All drugs and investigational agents were tested over a range starting from a high concentration at or near the clinical Cmax and decreasing in half-log increments. If the clinical Cmax for an agent had not been determined, the highest concentration tested was 10 microM.
Cell Culture. All cells were maintained in an incubator at 37 degrees C and 5% CO2 with 95% humidity. The PDC lines were cultured according to standard operating procedures established by the NCI PDMR (https://pdmr.cancer.gov/sops/default.htm). All PDCs were thawed and cultured in Matrigel-coated flasks prepared with a working solution of 1X Ham's F-12 nutrient mix, without supplementation (Invitrogen, Waltham, MA, cat. 11765054), 100 U/mL penicillin-streptomycin (Invitrogen, cat. 15140122), and 2.5% Matrigel (Corning Inc., Corning, NY, cat. 354248) for the first three passages. The 354836-022-R-J1-PDC, 475296-252-R-J1-PDC, and 997726-040-R-J2-PDC lines were cultured in 6A media, which includes advanced DMEM/F-12 (Thermo Fisher Scientific, cat. 12634028), 10 mM HEPES (Thermo Fisher Scientific, cat. 15630080), 1X GlutaMAX supplement (Thermo Fisher Scientific, cat. 35050061), 0.1 mg/mL primocin (InvivoGen, San Diego, CA, cat. ant-pm-2), 10% defined fetal bovine serum, heat inactivated (HyClone Laboratories Inc., Logan, UT, cat. SH30070.03HI), 50% L-WRN conditioned media (ATCC, cat. CRL-3276), 1.25 mM N-Acetyl-L-cysteine (Sigma-Aldrich, cat. A9165), 10 mM nicotinamide (Sigma-Aldrich, cat. N0636), 1X B-27 supplement (Thermo Fisher Scientific, cat. 17504044), 1X N-2 supplement (Thermo Fisher Scientific, cat. 17502048), and 10 microM Y-27632 dihydrochloride (Tocris Bioscience, Bristol, United Kingdom, cat. 1254). The 624824-186-R-J2-PDC line was cultured in 6C/Colon 1B media, which includes all 6A media components plus 50 ng/mL human EGF recombinant protein (Thermo Fisher Scientific, cat. PHG0311). […]

[1] = second compound 0.0316 µM, first compound 0.0316 µM
[2] = second compound 0.0316 µM, first compound 0.1 µM
[3] = second compound 0.0316 µM, first compound 0.316 µM
[4] = second compound 0.0316 µM, first compound 1 µM
[5] = second compound 0.0316 µM, first compound 3.16 µM
[6] = second compound 0.0316 µM, first compound 10 µM
[7] = second compound 0.1 µM, first compound 0.0316 µM
[8] = second compound 0.1 µM, first compound 0.1 µM
[9] = second compound 0.1 µM, first compound 0.316 µM
[10] = second compound 0.1 µM, first compound 1 µM
[11] = second compound 0.1 µM, first compound 3.16 µM
[12] = second compound 0.1 µM, first compound 10 µM
[13] = second compound 0.316 µM, first compound 0.0316 µM
[14] = second compound 0.316 µM, first compound 0.1 µM
[15] = second compound 0.316 µM, first compound 0.316 µM
[16] = second compound 0.316 µM, first compound 1 µM
[17] = second compound 0.316 µM, first compound 3.16 µM
[18] = second compound 0.316 µM, first compound 10 µM
[19] = second compound 1 µM, first compound 0.0316 µM
[20] = second compound 1 µM, first compound 0.1 µM
[21] = second compound 1 µM, first compound 0.316 µM
[22] = second compound 1 µM, first compound 1 µM
[23] = second compound 1 µM, first compound 3.16 µM
[24] = second compound 1 µM, first compound 10 µM
[25] = second compound 3.16 µM, first compound 0.0316 µM
[26] = second compound 3.16 µM, first compound 0.1 µM
[27] = second compound 3.16 µM, first compound 0.316 µM
[28] = second compound 3.16 µM, first compound 1 µM
[29] = second compound 3.16 µM, first compound 3.16 µM
[30] = second compound 3.16 µM, first compound 10 µM
[31] = second compound 10 µM, first compound 0.0316 µM
[32] = second compound 10 µM, first compound 0.1 µM
[33] = second compound 10 µM, first compound 0.316 µM
[34] = second compound 10 µM, first compound 1 µM
[35] = second compound 10 µM, first compound 3.16 µM
[36] = second compound 10 µM, first compound 10 µM
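Note: spheroids exposed to compounds for seven days.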
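Throughout, for viability, T/C: 100% = DMSO vehicle control viability.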

Compound: C#Cc1c(F)ccc2cc(O)cc(-c3ncc4c(N5CC6CCC(C5)N6)nc(OCC56CCCN5CC(F)C6)nc4c3F)c12 (centres undefined) + Cc1nc(NC(=O)N2CCCC2C(N)=O)sc1-c1ccnc(C(C)(C)C(F)(F)F)c1
- IC50 (second compound 0.0316 µM): > 10 µM
- IC50 (second compound 0.1 µM): > 10 µM
- IC50 (second compound 0.316 µM): > 10 µM
- IC50 (second compound 1 µM): > 10 µM
- IC50 (second compound 3.16 µM): 9.34 µM
- IC50 (second compound 10 µM): < 0.0316 µM
- viability, T/C [1]: 92.7%
- viability, T/C [2]: 91.5%
- viability, T/C [3]: 90.5%
- viability, T/C [4]: 99.2%
- viability, T/C [5]: 103%
- viability, T/C [6]: 102%
- viability, T/C [7]: 105%
- viability, T/C [8]: 106%
- viability, T/C [9]: 112%
- viability, T/C [10]: 97%
- viability, T/C [11]: 105%
- viability, T/C [12]: 96.5%
- viability, T/C [13]: 99.9%
- viability, T/C [14]: 98.4%
- viability, T/C [15]: 121%
- viability, T/C [16]: 108%
- viability, T/C [17]: 99.1%
- viability, T/C [18]: 100%
- viability, T/C [19]: 97.6%
- viability, T/C [20]: 80.3%
- viability, T/C [21]: 89.3%
- viability, T/C [22]: 89.7%
- viability, T/C [23]: 90.9%
- viability, T/C [24]: 79%
- viability, T/C [25]: 59.9%
- viability, T/C [26]: 62.5%
- viability, T/C [27]: 59.1%
- viability, T/C [28]: 60.1%
- viability, T/C [29]: 54.6%
- viability, T/C [30]: 44.8%
- viability, T/C [31]: 41.7%
- viability, T/C [32]: 39.8%
- viability, T/C [33]: 33.2%
- viability, T/C [34]: 33.9%
- viability, T/C [35]: 31.3%
- viability, T/C [36]: 27.2%

Compound: C=CC(=O)N1CCN(c2nc(=O)n(-c3c(C)ccnc3C(C)C)c3nc(-c4c(O)cccc4F)c(F)cc23)C(C)C1 (centres undefined) + Cc1nc(NC(=O)N2CCCC2C(N)=O)sc1-c1ccnc(C(C)(C)C(F)(F)F)c1
- IC50 (second compound 0.0316 µM): > 10 µM
- IC50 (second compound 0.1 µM): > 10 µM
- IC50 (second compound 0.316 µM): > 10 µM
- IC50 (second compound 1 µM): > 10 µM
- IC50 (second compound 3.16 µM): > 10 µM
- IC50 (second compound 10 µM): < 0.0316 µM
- viability, T/C [1]: 99.9%
- viability, T/C [2]: 101%
- viability, T/C [3]: 96.5%
- viability, T/C [4]: 106%
- viability, T/C [5]: 99.2%
- viability, T/C [6]: 96%
- viability, T/C [7]: 94.4%
- viability, T/C [8]: 94%
- viability, T/C [9]: 114%
- viability, T/C [10]: 86.3%
- viability, T/C [11]: 94.3%
- viability, T/C [12]: 92.8%
- viability, T/C [13]: 91.2%
- viability, T/C [14]: 90.2%
- viability, T/C [15]: 93.1%
- viability, T/C [16]: 98.8%
- viability, T/C [17]: 101%
- viability, T/C [18]: 101%
- viability, T/C [19]: 89%
- viability, T/C [20]: 89.4%
- viability, T/C [21]: 88.2%
- viability, T/C [22]: 97.3%
- viability, T/C [23]: 96.7%
- viability, T/C [24]: 89.5%
- viability, T/C [25]: 67.5%
- viability, T/C [26]: 56.5%
- viability, T/C [27]: 51.9%
- viability, T/C [28]: 67.5%
- viability, T/C [29]: 67.9%
- viability, T/C [30]: 58.5%
- viability, T/C [31]: 35.2%
- viability, T/C [32]: 32.4%
- viability, T/C [33]: 35.7%
- viability, T/C [34]: 32.9%
- viability, T/C [35]: 37.9%
- viability, T/C [36]: 34.2%
